Test results reported in publication PMC9845330 (Communications Biology, 2023).
“Also recorded” adds a separate entry of the source. Non-standard residues stand in square brackets, D forms with d. Residues, ends and D or L forms follow the SMILES beside them. *: point of attachment. X1 = O=C(CCCC[C@@H]1SC[C@@H]2NC(=O)N[C@@H]21)NCCCOCCOCCOCCCN*; PEG12 = NCCOCCOCCOCCOCCOCCOCCOCCOCCOCCOCCOCCOCCC(=O)O

System: subcutaneous H2009 tumors
Experiment: Tumor homing by near infrared imaging
Assay type: in vivo, mouse
Conditions: for Total Radiant Efficiency: Mean
Description: Use of MGS4 as a delivery agent relies on its ability to target a tumor in an animal. MGS4_V8 and MGS4_V6 (control) were conjugated directly to Alexa Fluor 750. Each conjugate was injected intravenously into immunocompromised mice bearing subcutaneous H2009 tumors, and accumulation of the peptide was measured by near infrared imaging (Fig. 5a). MGS4_V8 tumor homing is observed at 12 h and 85% of that signal is maintained at 24 h. MGS4_V8 signal remains at 48 and 72 h, indicating persistent retention of the dye in the tumor. At all times, MGS4_V8 has 25-40-fold increased signal compared to the control peptide. […] Tumors were fixed in paraformaldehyde followed by whole tumor imaging on a LI-COR® Odyssey (Fig. 5b). A clear visual difference exists between tumors isolated from mice treated with MGS4_V8 compared to those treated with MGS4_V6 control or untreated. Quantification of fluorescence results in a 240-fold higher signal in the MGS4_V8 treated tumors compared to the MGS4_V6 group. Similar results were obtained when subcutaneous H1299 tumors were established in mice (Supplemental Fig. 5).
Fig. 5 MGS4_V8 homes to xenograft tumor after systemic delivery and can deliver saporin resulting in reduced tumor growth. a H2009 tumor bearing nude mice (N = 4) were injected I.V. with MGS4_V8 or MGS4_V6 conjugated to NIR dye Alexa Fluor 750. At 12, 24, 48, and 72 h postinjection, mice were anesthetized and imaged on an IVIS® (Perkin Elmer) to measure total radiant efficiency in each tumor. MGS4_V8 accumulates in tumor 25–39 fold better than control peptide, MGS4_V6. […] Ex vivo NIR imaging of the tumors at the end of the experiment mirrors the data observed in the living animals. […] Data for individual animals is included in Supplementary Table 8. b Excised tumors from the previous experiment were fixed in PBS + 4% formaldehyde and then imaged again together on a LI-COR® Odyssey. Arbitrary fluorescence units (AFU) were determined for each tumor and the average and SEM are shown below the image. The mean fluorescent intensity is 240-fold greater for MGS4_V8-Alexa Fluor 750 conjugate than the MGS4_V6 control conjugate. c Saporin was conjugated to either targeting MGS4_V8 or nontargeting MGS4_V6 and 7.5 µg of the conjugate was injected I.V. into mice bearing subcutaneous tumors. Animals were dosed 2 times per week for 2.5 weeks (indicated by arrows). Tumors were measured every other day. MGS4_V8-saporin clearly slows tumor growth, while nontargeted saporin has no effect compared to untreated animals. Error bars represent SEM, *p-value < 0.05, **p-value < 0.01, ***p-value < 0.001, ****p-value < 0.0001 (two-way ANOVA). d Tumor size (mm3) are shown for individual animals at days 0, 6, 12, and 18. Mean value is represented by the horizontal line and the error bars represent standard error. There is no statistical difference between MGS4_V6-Saporin and untreated at any day. At days 12 and 18 MGS4_V8-Saporin is statistically different than untreated (p-values 0.0099 and 0.0029, respectively) and MGS4_V6-Saporin (p-values 0.0069 and 0.0009, respectively). TEXT PRINTED IN THE PICTURE: (b) MGS4_V8: AFU: 3.3e6 ± 1.1e5; 240-fold | (b) MGS4_V6: AFU: 1.2e4 ± 2.7e3 DOUBTS OF THE COPYIST ABOUT THIS PICTURE: Panel b, 240-fold: printed under a line spanning MGS4_V8 and MGS4_V6; assigned to MGS4_V8 / Panel b, Untreated column (AFU: 1.6e3 ± 4.3e2) left out because it is a control without a substance
Animal experiments were approved by SRI International’s Institutional Animal Care and Use committee (Animal Welfare Assurance Number A3025-01, protocol 14008). H2009 cells (10^6) or H1299 cells (10^6) were implanted subcutaneously on the flank of female Nu/Nu mice (Jackson Laboratory, Bar Harbor, ME). When tumors reached 100 mm^3, in vivo experiments were initiated. For imaging, the indicated peptides were conjugated directly to Alexa Fluor 750 near-infrared dye (Supplemental Fig. 1). Four animals per group were used. […]

Compound | Total Radiant Efficiency (12 h) | tumor signal maintained relative to 12 h (24 h, Alexa Fluor 750 conjugate i.v.) [%] | Total Radiant Efficiency (24 h) | Total Radiant Efficiency (48 h) | Total Radiant Efficiency (72 h (first line)) | Total Radiant Efficiency (72 h (second line)) | fold fluorescence versus MGS4_V6 group (excised fixed tumors, 72 h, LI-COR Odyssey) [fold] | tumor signal versus untreated tumors (Alexa Fluor 750 conjugate)
CC(=O)N[C@@H](Cc1ccccc1)C(=O)N[C@@H](Cc1c[nH]cn1)C(=O)N[C@@H](C)C(=O)N[C@H](C(=O)N1CCC[C@H]1C(=O)N[C@@H](CCC(N)=O)C(=O)N[C@@H](CO)C(=O)N[C@@H](Cc1ccccc1)C(=O)N[C@@H](Cc1ccc(O)cc1)C(=O)N[C@H](C(=O)NCCOCCOCCOCCOCCOCCOCCOCCOCCOCCOCCOCCOCCC(=O)N[C@@H](CCC(=O)NCCCOCCOCCOCCCNC(=O)CCCC[C@@H]1SC[C@@H]2NC(=O)N[C@@H]21)C(N)=O)[C@@H](C)O)C(C)C [MGS4_V8] (Ac-FHAVPQSFYT[PEG12]E(X1)-NH2) | 1.58e+010 | 85 | 1.33e+010 | 7.91e+009 | 7.00e+009 | 2.02e+010 | 240 | –
*HAVPQSFYT** [MGS4_V6] | 3.94e+008 | – | 3.44e+008 | 2.64e+008 | 2.80e+008 | 2.00e+009 | – | no statistically significant difference; also recorded: statistically no different than untreated tumors
